Key:
[1] = test system: human biphenotypic B bone marrow mononuclear leukemia cell MV4-11 subcutaneous xenograft tumor; assay: Inhibition of MV4-11 subcutaneous xenograft tumor in vivo; design: species or system nude mice
Protocol: In this assay, the anti-tumor effect of the compounds was evaluated using a nude mice model of subcutaneous xenograft tumor of human biphenotypic B bone marrow mononuclear leukemia cell MV4-11.
Human biphenotypic B bone marrow mononuclear leukemia cell MV4-11 was cultured in vitro in suspension with a RPMI1640 medium supplemented with 10% fetal bovine serum, 100 U/mL penicillin and 100 μg/mL streptomycin in a 5% CO2 cell incubator at 37° C. Routine passaging was performed twice a week. Cells in the logarithmic growth phase were collected, counted and then used for inoculation.
10×10^6 MV4-11 cells were inoculated subcutaneously on the back of the right neck of each mouse, wherein the inoculation volume was 0.2 mL, and the cell suspension was PBS plus matrigel (volume ratio 1:1). The assay of efficacy in vivo was performed on the 13th day after the cell inoculation, at which time the average tumor volume reached 181 mm^3. The mice were randomly divided into groups with 6 mice in each group, and administration to the mice started.
The diameter of the tumor was measured with vernier calipers twice a week. The formula for calculating the tumor volume is: V=0.5a×b^2, where a and b represent the long and short diameters of the tumor, respectively.
After 14 days of administration, the administration was stopped, and the rebound of the tumor was observed.

[2] = In vivo pharmacokinetic study in mice; design: species or system CD-1 male mice; conditions: male, CD-1, mouse, plasma
Protocol: CD-1 male mice aged 7 to 10 weeks were selected. The doses for intravenous and oral administration were 1 mg/kg and 2.5 mg/kg, respectively. The mice were fasted for at least 12 hours before the administration, and resumed feeding 4 hours after the administration. The mice had free access to water throughout the assay period.
On the day of the assay, the animals in the intravenous group were administrated the corresponding compound through a single injection in the tail vein at an administration volume of 5 mL/kg; the oral group were administrated the corresponding compound through a single intragastric gavage at an administration volume of 10 mL/kg. The animals were weighed before administration, and the administration volume was calculated based on the body weight. The time for collecting samples was: 0.083 (the injection group), 0.25, 0.5, 1, 2, 4, 8, 24 h. About 30 μL of whole blood was collected from the saphenous vein at each time point to prepare plasma for concentration determination by high-performance liquid chromatography-tandem mass spectrometry (LC-MS/MS). All animals were euthanized by CO2 anesthesia after collecting the PK samples at the last time point. The plasma concentrations were processed by non-compartmental model of WinNonlin™ Version 6.3 (Pharsight, Mountain View, Calif.) pharmacokinetic software, and the pharmacokinetic parameters were calculated by the linear logarithm trapezoidal method.

[3] = 5 mg/kg oral once a day for 14 days, then drug withdrawal

With `CCc1nc(C(N)=O)c(Nc2ccc(N3CCC4(CCN(C)CC4)CC3)c(C)c2)nc1NC1CCOCC1` the “% Inhibition rate on day 14” value ([1]; 5 mg/kg oral once a day) was 119%, the “Average tumor volume Day 14” value ([1]; 5 mg/kg oral once a day) was 32 cubic millimeter and the “Average tumor volume Day 25” value [1, 3] was 234 cubic millimeter. The “Average tumor volume Day 35” value [1, 3] was 849 cubic millimeter, the “Average tumor volume Day 0” value ([1]; baseline at start of dosing, 5 mg/kg oral once a day group) was 181 cubic millimeter and the AUC(0-t) ([2]; iv, injection 1 mg/kg) was 0.604 µM·h. For the same molecule, the clearance ([2]; iv, injection 1 mg/kg) was 48.5 mL/min/kg, the half-life ([2]; iv, injection 1 mg/kg) was 2.4 h and the Vd ([2]; iv, injection 1 mg/kg, read-out: Vdss) was 8.63 L/kg. It also gave an AUC(0-t) ([2]; oral administration 2.5 mg/kg) of 0.598 µM·h, a bioavailability ([2]; oral administration 2.5 mg/kg) of 37.3% and a half-life ([2]; oral administration 2.5 mg/kg) of 4.41 h.

From US11691974B2, “3,9-diazaspiro[5,5]undecane compound as FLT3 and AXL inhibitors” (MEDSHINE DISCOVERY INC., priority 2018, dated 2023)
